Source: US20040180031A1, “Skin conditioner” (Kabushiki Kaisha Soken, priority 1999, published 2004)

Assays:
[1] = system: normal human skin fibroblasts; assay: Collagen production recovery test on damaged fibroblasts (Test Example 1); type: cell-based; details: 3H-proline uptake into collagen; sample final concentration 3.3%; 24 hours at 37° C.; hypoxanthine/xanthine oxidase damage; FIG. 1
Description: A collagen production recovery test was conducted on damaged fibroblasts. Six to eight subcultures of normal human skin fibroblasts (Physicochemical Research Institute, Cell Development Bank NBIRGB) were used in the test. […] Measurement of collagen production ability of a confluent in the steady state was performed according to the method of Webster et al. based on the uptake of ^3H-proline into the produced collagen. […] Since proline is a main component of the amino acids that compose collagen, fibroblasts are cultured in a medium containing ^3H-proline, and the ^3H activity taken up into collagen in the cells is measured. Units are in d.p.m., and represent the number of […] of radioactivity released per minute.

persons with atopic skin [2] = assay: 2-hour moisture retention duration test on atopic skin (Test Example 9); type: in vivo, human
Description: A 2-hour moisture retention duration test was performed on atopic skin.

[3] = system: volunteers with chapped skin; assay: Moisture retention duration test on persons with chapped skin, ammonium samples (Test Example 17); type: in vivo, human
Description: A moisture retention duration test was conducted on persons with chapped skin.
Test Method: Same as Test Example 2
Measurement Method: Same as Text Example 2
Test Apparatus: Same as Test Example 2

persons with atopic skin [4] = assay: Moisture retention ability test on atopic skin, ammonium samples (Test Example 18); type: in vivo, human; details: FIG. 54
Description: A moisture retention ability test was performed on atopic skin. Test Method: Same as Test Example 3 Measurement Method: Same as Text Example 3 Test Apparatus: Same as Test Example 3

Row | SMILES | collagen production ability of fibroblasts damaged by active oxygen [1] | moisture retention duration / continuation of moisture retention (persons with atopic skin [2]) | moisture retention duration [3] | moisture retention ability (persons with atopic skin [4])
1 | N=C(N)NCCC[C@H](N)C(=O)O [L-arginine] | significantly improved | observed | – | –
2 | N [ammonium ions] | – | – | can be observed | can be observed
3 | NCCO [ethanolamine] | significantly improved | observed | – | –
